These results are taken from patent publication US8901337B2, “Metal complexes having dual histone deacetylase inhibitory and DNA-binding activity” (Royal College of Surgeons in Ireland, priority 2009, dated 2014).

For test [1], the system named is breast cancer cell line (SKBR). The experiment in a line: MTS in vitro cytotoxicity, SKBR. The format is cell-based. The following applies: 72 hours, Table 1, read-out: IC50 values against SKBR. On the procedure: (§1) All cells were kept in a humidified atmosphere with 5% CO2 at 37° C.; cells from confluent monolayers were removed from flasks by trypsin/EDTA solution and their viability determined by the trypan blue exclusion test.
(§2) Cell growth was determined by the [3-(4,5-dimethylthiazol-2-yl)-5-(3-carboxymethoxyphenyl)-2-(4-sulfophenyl)-2H-tetrazolium, inner salt, (MTS test, Promega, Southampton, UK), a colorimetric assay based on the ability of the viable cells to reduce a soluble yellow tetrazolium salt to blue formazan. 10,000 ovarian cancer cells or 3,000 fibroblast cells for example were seeded per well onto 96-well plates in 100 μl of the appropriate culture medium. 24 hr after sowing the cells, the media was removed and the cells were treated by adding 100 μl of the compound media solutions at the appropriate concentrations. cis-[Pt(NH3)2(malSAHA−2H)], cisplatin and cis-[Pt(NH3)2(mal)] were prepared freshly in cell culture media. […] The maximum percentage of dmso present in any well was less than 0.1% (v/v). cis-[Pt(NH3)2(malBel—2H)], belinostat and malbelinostat were freshly prepared in dimethyl formamide (DMF) and diluted in culture media prior to the MTS assay. The maximum percentage of DMF present in any well was 0.5% (v/v). A range of concentrations between 1 μM and 100 μM was used.
(§3) After 72 hr of treatment, 20 μl of the MTS reagent was added to each well and the plates incubated for 2 hr at 37° C. […] The percentages of surviving cells relative to untreated controls were determined.

Test [2] deals with colon cancer cell line (SW480). In words: MTS in vitro cytotoxicity, SW480. It is filed as cell-based. The following applies: 72 hours, Table 1, read-out: IC50 values against SW480. On the procedure:
as §1, §2, §3

Test [3] relates to DNA in SW480 cells (colon cancer). The experiment in a line: Pt binding to DNA in cultured cells (ICP-MS), SW480. The following applies: 2 hours of cell treatment. It is filed as cell-based. The procedure: (§4) Pt DNA binding of Pt complexes was measured in SW480 cells (colon cancer) and CH1 cells (lymphoma) or alternatively A2780 P and A2780 cisR cells (sensitive and resistant to cisplatin respectively). The cells were seeded in 60 mm tissue culture dishes with 10 ml of their respective medium. After overnight incubation the medium was removed and replaced with 10 ml of the respective medium containing a platinum complex giving a final concentration of 43 or 40 μM depending on the experiment. The cells were incubated with a given Pt complex for either 2 or 4 h depending on the experiment. The cells were trypsinised and centrifuged. The supernantant was removed and the cells washed twice with 1×PBS and centrifuged. The pellet was re-suspended in DNA buffer to which Proteinase K (20 mg/mL) and 10% SDS were added. After a gentle shake and incubation at 45° C. for two hours, RNAse (100 mg/mL) was added and the cells were incubated at 37° C. overnight. The volume of supernatant was noted and an equal volume of phenol was added.
(§5) The resulting mixture was shook for 10 min, then centrifuged for 10 min at 10° C. The supernatant was transferred into a new centrifuge tube (15 ml) and the volume was noted. To this was added an equal volume of phenol and chloroform/isoamylalcohol (24:1). The resulting mixture was shook for 10 min, then centrifuged for 10 min at 10° C. (3000 RPM). The supernatant was transferred into a new centrifuge tube (15 mL) and the volume was noted. To this was added an equal volume of chloroform. The resulting mixture was shook for 10 min, then centrifuged for 10 min at 10° C. The supernatant was transferred into a new centrifuge tube (15 mL) and the volume was noted. To this was added a volume that is 1/10 of the supernatant of 3 M sodium acetate (Ph 5.2) and three times the volume of cold 100% isopropanol (from freezer). The solution was shook gently until the DNA is precipitated. […] The absorbance of the DNA by was measured by UV spectrophotometry at 260 nm and 280 nm and the concentration of DNA calculated. Platinum bound to DNA was determined by ICP-MS.

A further test relates to DNA in A2780 P cells. In words: Pt binding to DNA in cultured cells (ICP-MS), A2780 P. The format is cell-based, human. Conditions: 4 hours of cell treatment; for DNA-bound Pt in A2780 P: 40 μM of Pt complexes. On the procedure:
as §4, §5

The test system of the next test is DNA in A2780 cisR cells. In words: Pt binding to DNA in cultured cells (ICP-MS), A2780 cisR. Conditions: 4 hours of cell treatment. The format is cell-based, human. On the procedure: as §4
(§6) The resulting mixture was shook for 10 min, then centrifuged for 10 min at 10° C. The supernatant was transferred into a new centrifuge tube (15 ml) and the volume was noted. […] The absorbance of the DNA by was measured by UV spectrophotometry at 260 nm and 280 nm and the concentration of DNA calculated. Platinum bound to DNA was determined by ICP-MS.

Test [4] has as its system A2780 P ovarian cancer cells. The experiment in a line: Cell cycle progression, flow cytometry (propidium iodide). The following applies: 72 hr. It is filed as cell-based, human. The procedure:
Both floating and attached cells were collected by centrifugation, washed twice in ice-cold PBS, pH 7.4, harvested by scraping with a rubber policeman, and then collected by centrifugation. The effect of drug treatment on cell cycle progression was determined using flow cytometric analysis according to the method of Nunez (2001).^21 Briefly, cell suspensions were fixed and permeabilised by vigorous addition of nine volumes of ice-cold 70% (v/v) ethanol and stored at −20° C. for a minimum of 24 h, prior to analysis. Cells at a density of approximately 1×10^6 were re-suspended in 800 μl of propidium iodide staining solution (20 μg/ml propidium iodide and 200 μg/ml RNase A in PBS, pH 7.4) and incubated in the dark at room temperature for 30 min. The percentage of cells in the sub-G1, G0/G1, S and G2/M phases of the cell cycle was determined over a range of concentrations and time points, and analysed from at least three independent experiments using Cell Quest™ software (Becton Dickinson).

The subject of test [5] is DNA in CH1 cells (lymphoma). The experiment in a line: Pt binding to DNA in cultured cells (ICP-MS), CH1. The format is cell-based. Conditions: 43 μM of Pt complexes, 2 hours of cell treatment. On the procedure:
as §4, §6

On to `[NH2][Pt]1([NH2])[O]C(=O)C(Cc2ccc(NC(=O)CCCCCCC(=O)NO)cc2)C(=O)[O]1` [cis-[Pt(NH3)2(malSAHA−2H)], cis-[Pt(NH3)2(malSAHA−2H)].3H2O], for which the results for the IC50 in test [1] and in test [2] were 9.9 ± 1.8 µM and 13.4 ± 3.9 µM, respectively. For the same compound, the “binding of Pt to DNA in cultured cells (in words)” value in test [3] (SW480 and CH1 cells) is recorded as “binds DNA in cultured cells after 2 hours of cell treatment”.
For `[NH2][Pt]1([NH2])[O]C(=O)C(Cc2ccc(NS(=O)(=O)c3ccc(/C=C/C(=O)NO)cc3)cc2)C(=O)[O]1` [cis-[Pt(NH3)2(malBel−2H)], cis-[Pt(NH3)2(malBel−2H)].1.5H2O], in the test on DNA in A2780 P cells, the “DNA-bound Pt in A2780 P” value is reported as 5,175 · 10^−15 ± 27 moles of Pt/μg of DNA; the “DNA binding in A2780 P compared with cisplatin (in words)” value is “binds DNA in A2780 P and A2780 cisR cancer cells and to a greater extent than cisplatin”. Besides, in the test with DNA in A2780 cisR cells, the “DNA binding in A2780 cisR compared with cisplatin (in words)” value is “binds DNA in A2780 P and A2780 cisR cancer cells and to a greater extent than cisplatin”. Further, in test [4] (concentration equal to IC50), the “% G0/G1 ± S.E.M.” value is 16.16 ± 0.88%, the “% G2/M ± S.E.M.” value turned out to be 7.91 ± 0.03%, the “% S ± S.E.M.” value stood at 7.21 ± 0.11% and the “% Sub-G1 ± S.E.M.” value is 60.86 ± 0.26%. For the same compound, in test [4] (concentration equal to IC75), the “% G0/G1 ± S.E.M.” value is reported as 11.75 ± 0.17%, the “% G2/M ± S.E.M.” value is listed as 8.04 ± 0.72%, the “% S ± S.E.M.” value came out at 5.59 ± 0.36% and the “% Sub-G1 ± S.E.M.” value is reported as 67.67 ± 0.43%. Besides, in test [4] (A2780 P), the “sub-G1 accumulation (in words)” value is “dose dependent increase in sub-G1 accumulation compared to control cells”.
For `N.N.[Cl][Pt][Cl]` [cisplatin, cis-[Pt^II(NH3)2Cl2], reference compound], the IC50 in test [1] stood at 7.5 ± 1.2 µM. In test [2], the IC50 was 8 ± 0.3 µM. In test [3] (43 μM of Pt complexes), the “DNA-bound Pt in SW480” value was 38.5 · 10^−15 moles of Pt/μg of DNA. For the same compound, the “DNA-bound Pt in CH1” value in test [5] is reported as 10.5 · 10^−15 moles of Pt/μg of DNA. Also, in the test on DNA in A2780 P cells, the “DNA-bound Pt in A2780 P” value was 200 · 10^−15 ± 60 moles of Pt/μg of DNA. Besides, the “DNA-bound Pt in A2780 cisR” value in the test with DNA in A2780 cisR cells (40 μM of Pt complexes) is given as 665 · 10^−15 ± 6 moles of Pt/μg of DNA. For the same compound, in test [4] (concentration equal to IC50), the “% G0/G1 ± S.E.M.” value is recorded as 18.58 ± 0.58%, the “% G2/M ± S.E.M.” value came out at 5.44 ± 0.04%, the “% S ± S.E.M.” value came to 5.33 ± 0.13% and the “% Sub-G1 ± S.E.M.” value is listed as 64.16 ± 0.74%. Further, in test [4] (concentration equal to IC75), the “% G0/G1 ± S.E.M.” value was 20.88 ± 0.14%, the “% G2/M ± S.E.M.” value is recorded as 4.73 ± 0.13%, the “% S ± S.E.M.” value amounted to 5.81 ± 0.30% and the “% Sub-G1 ± S.E.M.” value stood at 61.81 ± 0.39%.
